Reference: ChEMBL document CHEMBL1201862, “PubChem BioAssay data set” (2004)
Active and inactive are the calls of the source.

How the values were obtained:
Assay type in all cases: functional
[1] = molecular target: G-protein coupled receptor 55 (Homo sapiens, UniProt Q9Y2T6); test: SAR analysis of selective Agonists of GPR55 using an Image-Based Assay - Set 2. [Related pubchem assays (depositor defined):AID1961, AID1965]
[2] = molecular target: T1, Cannabinoid receptor 1 (Homo sapiens, UniProt P21554); test: SAR analysis of antagonists of the Cannabinoid Receptor 1 using an Image-Based Assay - Set 3. [Related pubchem assays (depositor defined):AID1961, AID1965]
[3] = molecular target: T2, G-protein coupled receptor 35 (Homo sapiens, UniProt Q9HC97); test: SAR analysis of Antagonists of the GPR35 Receptor using an Image-Based Assay - Set 4. [Related pubchem assays (depositor defined):[…]]
[4] = molecular target: T2, G-protein coupled receptor 35; test: SAR analysis of Agonists of the GPR35 Receptor using an Image-Based Assay - Set 3. [Related pubchem assays (depositor defined):AID1961, AID1965]
[5] = molecular target: T3, Cannabinoid receptor 2 (Homo sapiens, UniProt P34972); test: SAR analysis of antagonists of the Cannabinoid Receptor 2 using an Image-Based Assay - Set 2. [Related pubchem assays (depositor defined):AID1961, AID1965]
[6] = molecular target: T3, Cannabinoid receptor 2; test: SAR analysis of agonists of the Cannabinoid Receptor 2 using an Image-Based Assay - Set 2. [Related pubchem assays (depositor defined):AID1961, AID1965]
[7] = molecular target: T1, Cannabinoid receptor 1; test: SAR analysis of agonists of the Cannabinoid Receptor 1 using an Image-Based Assay - Set 3. [Related pubchem assays (depositor defined):AID1961, AID1965]
[8] = molecular target: Tyrosine-protein phosphatase non-receptor type 5 (Homo sapiens, UniProt P54829); test: STEP phosphatase inhibitors, confirmation, biochemical, fluorescence intensity, uHTS hits (AID 602372); conditions: read-out: IC50_Mean
[9] = molecular target: T4, Carboxy-terminal domain RNA polymerase II polypeptide A small phosphatase 1 (Homo sapiens, UniProt Q9GZU7); test: inhibitors of CTDSP1, concentration-response testing, biochemical assay, absorbance-based, actives from ultra-high-throughput screening (AID 540297)
T4 sequence (Q9GZU7 whole entry): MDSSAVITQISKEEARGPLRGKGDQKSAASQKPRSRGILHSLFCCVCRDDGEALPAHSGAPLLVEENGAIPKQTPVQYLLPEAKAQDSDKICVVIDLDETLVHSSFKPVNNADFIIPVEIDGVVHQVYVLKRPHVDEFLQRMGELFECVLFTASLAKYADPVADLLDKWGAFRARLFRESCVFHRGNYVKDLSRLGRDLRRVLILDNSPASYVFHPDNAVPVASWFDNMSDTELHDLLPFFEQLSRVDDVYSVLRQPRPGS

[10] = molecular target: DNA dC->dU-editing enzyme APOBEC-3G (Homo sapiens, UniProt Q9HC16);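 note: Dose-response counterscreen measuring inhibition of APOBEC3G DNA deaminase activity, run while confirming APOBEC3A inhibitors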
[11] = molecular target: DNA dC->dU-editing enzyme APOBEC-3A (Homo sapiens, UniProt P31941); test: Dose Response confirmation of small molecule APOBEC3A DNA Deaminase Inhibitors via a fluorescence-based single-stranded DNA deaminase assay. [Related pubchem assays (depositor defined):AID493011, AID493024]
[12] = molecular target: Dual specificity protein phosphatase 3 (Homo sapiens, UniProt P51452); test: VHR phosphatase inhibition, dose response, selectivity assay for STEP inhibitor project, biochemical (AID 602374); conditions: read-out: IC50_Mean
[13] = molecular target: Tyrosine-protein phosphatase non-receptor type 11 (Homo sapiens, UniProt Q06124); test: SHP2 phosphatase inhibition, dose response, selectivity assay for STEP inhibitor project, biochemical (AID 602367); conditions: read-out: IC50_Mean
[14] = molecular target: Integrin alpha-L (Mus musculus, UniProt P24063); test: modulators of CD8 T cell-vesicle binding, dose response, powder samples, mouse 2C CD8+ cells (AID 504565)
Chain of Integrin alpha-L (P24063 whole entry): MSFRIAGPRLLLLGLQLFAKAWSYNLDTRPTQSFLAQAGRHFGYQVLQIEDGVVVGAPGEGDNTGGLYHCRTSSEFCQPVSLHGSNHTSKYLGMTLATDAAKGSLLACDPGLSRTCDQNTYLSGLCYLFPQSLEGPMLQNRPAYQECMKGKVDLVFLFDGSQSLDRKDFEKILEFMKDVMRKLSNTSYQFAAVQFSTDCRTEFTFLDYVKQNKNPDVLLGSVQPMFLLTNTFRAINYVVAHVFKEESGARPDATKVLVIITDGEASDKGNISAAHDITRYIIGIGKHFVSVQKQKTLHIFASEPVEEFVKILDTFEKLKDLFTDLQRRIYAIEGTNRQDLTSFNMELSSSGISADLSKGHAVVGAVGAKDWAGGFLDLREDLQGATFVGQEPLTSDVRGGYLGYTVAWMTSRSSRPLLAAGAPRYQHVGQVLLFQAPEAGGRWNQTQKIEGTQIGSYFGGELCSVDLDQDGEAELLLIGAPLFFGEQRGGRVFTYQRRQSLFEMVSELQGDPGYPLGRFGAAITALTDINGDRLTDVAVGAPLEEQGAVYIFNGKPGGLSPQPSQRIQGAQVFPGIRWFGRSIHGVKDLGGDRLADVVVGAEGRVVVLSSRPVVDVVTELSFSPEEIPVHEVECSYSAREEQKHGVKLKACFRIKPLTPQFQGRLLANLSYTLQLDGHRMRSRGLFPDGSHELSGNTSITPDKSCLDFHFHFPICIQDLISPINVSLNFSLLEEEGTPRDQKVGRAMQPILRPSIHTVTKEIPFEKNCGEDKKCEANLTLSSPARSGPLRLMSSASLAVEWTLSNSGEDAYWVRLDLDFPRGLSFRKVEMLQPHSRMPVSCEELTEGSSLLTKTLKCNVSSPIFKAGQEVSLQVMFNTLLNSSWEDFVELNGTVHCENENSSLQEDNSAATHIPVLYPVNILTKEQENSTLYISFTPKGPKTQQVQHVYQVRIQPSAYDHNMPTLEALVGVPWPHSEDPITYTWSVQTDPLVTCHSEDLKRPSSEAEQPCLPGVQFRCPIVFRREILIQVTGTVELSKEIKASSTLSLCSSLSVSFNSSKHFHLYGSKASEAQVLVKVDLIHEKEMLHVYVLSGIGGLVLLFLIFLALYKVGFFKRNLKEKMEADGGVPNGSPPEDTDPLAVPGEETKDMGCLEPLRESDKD

T2 sequence (Q9HC97 whole entry): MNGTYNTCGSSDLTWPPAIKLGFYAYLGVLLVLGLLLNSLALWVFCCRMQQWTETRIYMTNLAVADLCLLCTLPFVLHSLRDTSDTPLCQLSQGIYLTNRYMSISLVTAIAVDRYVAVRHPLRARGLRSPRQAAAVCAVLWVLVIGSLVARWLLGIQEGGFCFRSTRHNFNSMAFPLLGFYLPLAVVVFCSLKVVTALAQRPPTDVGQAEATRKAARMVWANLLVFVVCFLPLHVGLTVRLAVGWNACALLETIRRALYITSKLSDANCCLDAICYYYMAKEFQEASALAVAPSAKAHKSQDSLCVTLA
T1 sequence (P21554 whole entry): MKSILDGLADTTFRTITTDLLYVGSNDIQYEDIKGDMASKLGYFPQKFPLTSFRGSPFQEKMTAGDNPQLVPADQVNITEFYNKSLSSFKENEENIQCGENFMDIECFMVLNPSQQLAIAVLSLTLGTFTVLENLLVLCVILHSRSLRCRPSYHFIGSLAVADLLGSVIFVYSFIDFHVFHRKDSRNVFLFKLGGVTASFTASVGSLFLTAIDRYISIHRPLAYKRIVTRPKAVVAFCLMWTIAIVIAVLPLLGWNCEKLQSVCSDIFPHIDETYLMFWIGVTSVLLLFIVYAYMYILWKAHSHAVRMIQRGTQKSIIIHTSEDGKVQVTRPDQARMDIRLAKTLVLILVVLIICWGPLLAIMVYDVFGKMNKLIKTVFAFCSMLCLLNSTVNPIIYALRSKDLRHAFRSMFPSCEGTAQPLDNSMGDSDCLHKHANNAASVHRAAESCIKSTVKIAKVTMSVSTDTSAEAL
T3 sequence (P34972 whole entry): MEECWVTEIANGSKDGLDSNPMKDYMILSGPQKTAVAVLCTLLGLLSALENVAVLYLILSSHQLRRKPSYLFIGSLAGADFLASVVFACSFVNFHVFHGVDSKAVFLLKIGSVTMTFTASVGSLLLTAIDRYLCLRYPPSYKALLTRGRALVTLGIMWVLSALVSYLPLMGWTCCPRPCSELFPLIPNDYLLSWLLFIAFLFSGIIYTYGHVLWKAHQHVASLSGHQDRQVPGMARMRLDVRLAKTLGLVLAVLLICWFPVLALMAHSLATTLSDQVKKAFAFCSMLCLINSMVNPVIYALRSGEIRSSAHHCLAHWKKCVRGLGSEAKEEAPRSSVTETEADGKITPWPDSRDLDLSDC
Chain of Tyrosine-protein phosphatase non-receptor type 5 (P54829 whole entry, the tested form may be a part): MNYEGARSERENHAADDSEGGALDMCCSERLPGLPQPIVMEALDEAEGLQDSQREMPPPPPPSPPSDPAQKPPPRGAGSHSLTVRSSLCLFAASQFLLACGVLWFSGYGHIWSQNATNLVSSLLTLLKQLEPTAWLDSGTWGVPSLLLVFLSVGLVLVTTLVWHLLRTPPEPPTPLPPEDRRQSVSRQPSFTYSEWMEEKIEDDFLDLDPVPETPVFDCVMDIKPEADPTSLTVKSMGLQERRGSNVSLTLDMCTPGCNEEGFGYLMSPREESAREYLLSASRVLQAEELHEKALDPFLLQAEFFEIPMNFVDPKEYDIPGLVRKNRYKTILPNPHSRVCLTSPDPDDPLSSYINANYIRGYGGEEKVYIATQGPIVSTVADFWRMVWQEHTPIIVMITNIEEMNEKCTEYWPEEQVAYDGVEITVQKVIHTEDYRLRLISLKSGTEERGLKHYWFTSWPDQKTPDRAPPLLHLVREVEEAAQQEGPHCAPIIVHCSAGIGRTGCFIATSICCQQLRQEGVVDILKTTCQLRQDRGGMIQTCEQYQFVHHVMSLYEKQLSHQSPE
Chain of DNA dC->dU-editing enzyme APOBEC-3A (P31941 whole entry): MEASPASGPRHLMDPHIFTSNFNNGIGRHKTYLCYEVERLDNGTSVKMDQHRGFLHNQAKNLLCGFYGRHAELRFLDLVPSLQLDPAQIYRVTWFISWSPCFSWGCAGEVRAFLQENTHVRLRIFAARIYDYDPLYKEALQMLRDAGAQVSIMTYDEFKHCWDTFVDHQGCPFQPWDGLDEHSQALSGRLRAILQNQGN
Chain of Tyrosine-protein phosphatase non-receptor type 11 (Q06124 whole entry): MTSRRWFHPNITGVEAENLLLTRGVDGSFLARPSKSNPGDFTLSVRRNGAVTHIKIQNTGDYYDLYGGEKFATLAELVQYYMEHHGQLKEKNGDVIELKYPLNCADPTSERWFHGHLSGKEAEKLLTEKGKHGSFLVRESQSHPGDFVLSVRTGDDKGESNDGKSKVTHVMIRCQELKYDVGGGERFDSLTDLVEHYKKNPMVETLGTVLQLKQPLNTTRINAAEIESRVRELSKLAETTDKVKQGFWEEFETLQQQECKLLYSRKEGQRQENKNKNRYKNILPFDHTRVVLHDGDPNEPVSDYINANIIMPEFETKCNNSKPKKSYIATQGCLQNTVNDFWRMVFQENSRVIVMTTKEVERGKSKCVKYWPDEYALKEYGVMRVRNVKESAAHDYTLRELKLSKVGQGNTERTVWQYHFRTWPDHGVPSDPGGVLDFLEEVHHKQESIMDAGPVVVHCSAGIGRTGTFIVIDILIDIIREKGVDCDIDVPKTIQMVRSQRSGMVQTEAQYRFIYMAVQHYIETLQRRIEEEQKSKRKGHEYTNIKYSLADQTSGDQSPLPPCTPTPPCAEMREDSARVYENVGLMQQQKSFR
Chain of G-protein coupled receptor 55 (Q9Y2T6 whole entry): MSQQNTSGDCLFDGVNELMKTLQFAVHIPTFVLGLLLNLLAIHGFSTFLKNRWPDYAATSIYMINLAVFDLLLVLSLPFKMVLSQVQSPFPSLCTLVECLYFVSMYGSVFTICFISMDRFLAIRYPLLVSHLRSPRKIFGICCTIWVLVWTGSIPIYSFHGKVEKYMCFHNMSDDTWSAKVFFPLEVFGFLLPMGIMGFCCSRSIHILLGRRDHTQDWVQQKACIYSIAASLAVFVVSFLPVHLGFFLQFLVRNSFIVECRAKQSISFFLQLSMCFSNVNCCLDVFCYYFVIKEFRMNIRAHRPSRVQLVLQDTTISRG
Chain of Dual specificity protein phosphatase 3 (P51452 whole entry): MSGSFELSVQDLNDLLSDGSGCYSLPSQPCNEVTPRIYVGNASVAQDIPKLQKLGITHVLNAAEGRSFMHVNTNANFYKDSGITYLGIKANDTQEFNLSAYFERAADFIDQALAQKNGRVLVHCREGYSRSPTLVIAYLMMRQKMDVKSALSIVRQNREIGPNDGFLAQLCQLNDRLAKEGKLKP
Chain of DNA dC->dU-editing enzyme APOBEC-3G (Q9HC16 whole entry): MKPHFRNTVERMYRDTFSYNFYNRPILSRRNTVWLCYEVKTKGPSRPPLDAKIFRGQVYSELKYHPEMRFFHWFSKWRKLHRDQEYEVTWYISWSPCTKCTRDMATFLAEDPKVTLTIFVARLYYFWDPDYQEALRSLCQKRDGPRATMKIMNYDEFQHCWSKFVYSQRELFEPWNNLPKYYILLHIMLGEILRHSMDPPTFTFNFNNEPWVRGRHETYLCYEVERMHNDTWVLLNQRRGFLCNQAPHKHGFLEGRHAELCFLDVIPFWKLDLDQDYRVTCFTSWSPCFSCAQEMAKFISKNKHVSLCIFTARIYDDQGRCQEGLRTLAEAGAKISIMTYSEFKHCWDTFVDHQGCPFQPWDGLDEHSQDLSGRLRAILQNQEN

Question: COc1ccc(S(=O)(=O)N2CCOCC2)cc1NC(=O)c1ccc(OC(F)F)cc1 was tested. Which EC50 [1] did it give?
Answer: Its EC50 is > 32 µM (inactive).

Question: What about the IC50 [2] of the same molecule?
Answer: The IC50 was > 32 µM (inactive).

Question: What about the IC50 [3] of the same molecule?
Answer: The IC50 was > 32 µM (inactive).

Question: What about the EC50 [4] of the same molecule?
Answer: The EC50 was > 32 µM (inactive).

Question: And the IC50 [5]?
Answer: The IC50 was > 32 µM (inactive).

Question: And the EC50 [6]?
Answer: The EC50 was > 32 µM (inactive).

Question: And the EC50 [7]?
Answer: Its EC50 is > 32 µM (inactive).

Question: What does the source list for COc1cccc(N2[C@@H](CC(=O)O)c3ccc(/C=C/C(=O)O)cc3S2(=O)=O)c1?
Answer: IC50 [8]: 52.1 µM (inactive); IC50 [9]: 2.88 µM (active); IC50 [10]: 41.2 µM (active); IC50 [11]: 12.2 µM (active); IC50 [12]: 2.49 µM (active); IC50 [13]: 0.933 µM (active)

Question: O=C(COC(=O)C12CC3CC(CC(Br)(C3)C1)C2)Nc1cccc(S(=O)(=O)N2CCOCC2)c1 was tested. Which EC50 [14] did it give?
Answer: Its EC50 is 1.21 µM (active).
